The record followed here is patent US9168243B2, “Pharmaceutical compositions comprising 8-substituted dibenzylbutyrolactone lignans” (priority 2010, dated 2015).

What all share (format): cell-based
One assay concerns LNCaP cells. Description: Caspase-3 activation by flow cytometry, TRAIL with or without NTG. To be noted: for percentage of cells with activated caspase-3 (maximum): combination of 40 μM NTG and TRAIL, 20 h. The protocol: (§1) Flow cytometric analysis of apoptosis with HTS platform was performed on cells that were plated on a 96-well plate as triplicate samples. After 24 hours in androgen-deprived conditions, the cells were pretreated with 40 μM lignans or lignan derivatives for 1 hour prior to addition of 10 ng/ml izTRAIL. Twenty hours later the plate was centrifuged with a culture plate rotor (1000 rpm, 3 minutes). For analysis of nuclear fragmentation, propidium iodide (PI) buffer (40 mM Na-citrate, 0.3% Triton X-100, 50 μg/ml PI; Sigma) was added to the wells. After 10 minutes incubation at room temperature, the plate was analyzed with LSRII flow cytometer equipped with HTS platform (PE-A channel). The fraction of sub-G0/G1 events (nuclear fragmentation) was gated as a measure of apoptotic cell death. For detection of mitochondrial depolarization, the cells were detached by trypsinization of the cells and incubated in 20 nM tetramethylrhodamine (TMRM; Invitrogen) in warm culture medium for 10 minutes before analysis. The plate was analyzed with LSRII flow cytometer equipped with HTS platform (FSC, PE-A channel). The cells with decreased TMRM incorporation were considered to have undergone mitochondrial membrane depolarization. Activated caspase-3 in cells was labeled with phycerythrin (PE)-conjugated antibody according to manufacturer's protocol (BD Pharmingen) and analyzed by FacsCalibur flow cytometer (FL-2, FSC).
As NTG was identified as the most efficient TRAIL-sensitizing lignan, we analyzed the ability of NTG to affect the efficacy of different TRAIL concentrations in triggering of caspase-3 activation (FIG. 2A). The TRAIL resistant LNCaP cells were cultured in androgen-supplied and androgen-deprived conditions to simulate the effects of androgen-deprivation therapy, and treated for 20 h with TRAIL alone or with the combination of 40 μM NTG and TRAIL. The percentage of cells with activated caspase-3 increased from maximum of 15% to 60% for androgen-deprived, and from 13% to 30% for androgen-supplied cells (Mean±SEM; n≧3) (FIG. 2A).
For orientation: Flow cytometry measures light scatter and fluorescence of single cells or particles in a stream.

The next assay relates to Akt. Description: Confocal microscopy of Akt localization. The note with it: androgen-deprived LNCaP; 100 μM NTG, 2 hours. The protocol:
After treatments, the cells cultured on coverslips were washed with PBS and fixed with 3% paraformaldehyde for 15 minutes at room temperature. The samples were permeabilized and blocked for one hour in 3% BSA 0.1% Tween in PBS. Akt was labeled with rabbit anti-Akt antibody (Cell signaling) and Alexa 546-conjugated anti-rabbit secondary antibody (Molecular Probes). After washing with PBS, the samples were mounted with DAPI Vectashield (Vector Laboratories) and viewed by Zeiss LSM 510 META laser-scanning confocal microscope (63× oil objective, 543 nm excitation).
LNCaP cells (+/−1 nM androgen) were treated with 0-100 μM enterolactone (ENL), matairesinol (MAT) or NTG for 1 hour prior to preparation of total cell lysates (FIG. 4A). The relative decrease in pAkt/Akt ratio was quantified from western blot analysis with Akt (60 kDa) and phospho-Akt(ser473) (Mean±SEM; n=4; Student's t-test *p<0.05, **p<0.01). Alternatively, androgen-deprived LNCaP cells were incubated with 100 μM NTG for 2 hours, fixed and labeled with Akt antibody followed by Alexa 546-conjugated secondary antibody. The samples were viewed at LSM 510 confocal microscope (63× oil objective, 543 nm excitation) (FIG. 4B). […] The western blot analysis with Akt, phospho-Akt(ser473), GSK-3β and phospho-GSK-3β(ser9) was quantified. […]

The test system of assay [1] is LNCaP prostate cancer cells. Description: Flow cytometric screen for sensitization to TRAIL-induced apoptosis (nuclear fragmentation by propidium iodide, mitochondrial depolarization by TMRM). The protocol:
as §1
LNCaP cells were cultured in the absence of 1 nM androgen and incubated with lignan compounds (40 μM) for 1 hour before izTRAIL treatment (10 ng/ml) or control for 20 hours. The samples were screened for nuclear fragmentation by propidium iodide labeling (FIG. 1A) or mitochondrial depolarization by TMRM labeling (FIG. 1B). The plates were analyzed with LSRII flow cytometer equipped with HTS platform (FSC, PE-A channels). The fraction of sub-G0/G1 events (nuclear fragmentation; PE-A channel) was gated as a measure of apoptotic cell death (FIG. 1A) and the cells with decreased TMRM incorporation (PE-A channel) were considered to have undergone mitochondrial membrane depolarization (FIG. 1B). Representative histograms and dot blots for control, TRAIL, nortrachelogenin (NTG) and NTG+TRAIL treatments are viewed.
Importantly, substitution with methyl group at position 8 further increases activity of dibenzylbutyrolactone lignans in sensitization of LNCaP prostate cancer cells to TRAIL-mediated apoptosis (FIG. 8). LNCaP cells were cultured in the absence of 1 nM androgen and incubated with indicated lignan compounds (40 μM) for 1 hour before izTRAIL treatment (10 ng/ml) or control for 20 hours. The cells were disrupted and the nuclei labeled for DNA content with propidium iodide. The samples were analyzed by flow cytometry and the fraction of sub-G0/G1 events (nuclear fragmentation) was detected as a measure of apoptotic cell death (mean±SEM; n=4). (FIG. 8A). Alternatively, LNCaP cells (+/−1 nM androgen) were incubated with 0-100 μM 8-Me-MAT for 1 hour after which total cell lysates were prepared and the samples were analyzed by Western blotting for Akt and phospho-Akt(ser473) expression.

Molecules are shown by their SMILES. “Also recorded” adds a separate entry of the source.

`COc1cc(CC2COC(=O)C2(O)Cc2ccc(O)c(OC)c2)ccc1O` (stereo not shown) [NTG, Nortrachelogenin]: in the assay with LNCaP cells (1 hour pretreatment with 40 μM NTG, culture medium replaced before TRAIL, androgen-deprived and androgen-supplied), the “sensitizing effect when medium change directly precedes TRAIL receptor activation” value was “completely abolished”. In addition, the “effect of increasing the NTG dose on sensitization to TRAIL” value in the assay with LNCaP cells (NTG 40 μM to 100 μM, 10 ng/ml TRAIL) is on record as “did not induce further sensitization”. Also, the results for the “percentage of cells with activated caspase-3 (maximum)” value in the assay on LNCaP cells (androgen-deprived LNCaP) and in the assay with LNCaP cells (androgen-supplied LNCaP) were 60% and 30%, respectively. In addition, the “cellular localization of Akt” value in the assay on Akt is recorded as “increases cytoplasmic localization of Akt”. The “capacity to sensitize LNCaP prostate cancer cells to TRAIL-induced apoptosis” value in assay [1] (androgen-deprived, 40 μM lignan 1 hour before 10 ng/ml izTRAIL, 20 hours) is listed as “highest capacity of the tested lignan compounds; also recorded: most efficient of the 27 tested lignan compounds; also recorded: clearly enhances the activity”. In addition, in assay [1] (lignan in combination with TRAIL), the “increase of the apoptotic response compared to TRAIL alone (factor)” value is on record as 3.2.
